Source: patent publication US20230389548A1, “MIXTURES OF PYRIMIDINES AS HERBICIDAL COMPOSITIONS” (SYNGENTA CROP PROTECTION AG, priority 2020, published 2023)

Experiments:
Test in all cases: Post-emergence glasshouse spray test, visual percentage phytotoxicity after 13 days
Assay type in all cases: in vivo
[1] = system: Setaria faberi (SETFA); details: for SETFA percentage phytotoxicity: B1
Method: (§1) Seeds of Setaria faberi (SETFA), Echinochloa crus-galli (ECHCG), Digitaria sanguinalis (DIGSA), Lolium perenne (LOLPE), Alopecurus myosuroides (ALOMY), Chenopodium album (CHEAL), Ipomoea hederacea (IPOHE), Stellaria media (STEME), Abutilon threophrasti (ABUTH), Amaranthus retroflexus (AMARE) were sown in standard sterilised soil in pots. After cultivation for 8 days under controlled conditions in a glasshouse (at 24/19° C., day/night; 16 hours light; no humidity control), the plants were sprayed at 500 l/Ha with an aqueous spray solution derived from the formulation of the technical active ingredients in a small amount of acetone and a solvent and emulsifier mixture referred to as IF50 (11.12% Emulsogen EL360™+44.44% N-methylpyrrolidone+44.44% Dowanol DPM glycol ether), to create a 50 g/l solution which was then diluted using 0.2% Genapol XO80 (CAS Number: 9043-30-5) as diluent to give the desired final dose of test compound.
(§2) Where active ingredients were applied as mixtures, aqueous spray solutions were prepared as above, containing both active ingredients.
(§3) The test plants were then grown under controlled conditions in a glasshouse (at 24/18° C., day/night; 15 hours light; 50% humidity) and watered twice daily. After 13 days, the test was evaluated visually for percentage phytotoxicity to the plants (where 100=total damage to plant; 0=no damage to plant; and NC=not captured) when compared to control untreated plants. Two to four replicates were applied for each treatment in a randomised block test design.
(§4) 22., E=X+Y−(X*Y/100), where
(§5) X=average percent phytotoxicity of herbicide A when applied at a certain rate Y=average percent phytotoxicity using herbicide B when applied at a certain rate E=the expected effect of the mixture of herbicides A and B as calculated from the Colby formula.

[2] = system: Stellaria media (STEME); details: for STEME percentage phytotoxicity: B1
Method: as §1, §2, §3, §4, §5

[3] = system: Ipomoea hederacea (IPOHE); details: for IPOHE percentage phytotoxicity: B1
Method: as §1, §2, §3, §4, §5

[4] = system: Lolium perenne (LOLPE); details: for LOLPE percentage phytotoxicity: B1
Method: as §1, §2, §3, §4, §5

[5] = system: Amaranthus retroflexus (AMARE); details: for AMARE percentage phytotoxicity: B1
Method: as §1, §2, §3, §4, §5

[6] = system: Digitaria sanguinalis (DIGSA); details: for DIGSA percentage phytotoxicity: B1
Method: as §1, §2, §3, §4, §5

[7] = system: Echinochloa crus-galli (ECHCG); details: for ECHCG percentage phytotoxicity: B1
Method: as §1, §2, §3, §4, §5

[8] = system: Chenopodium album (CHEAL); details: for CHEAL percentage phytotoxicity: B1; for Observed phytotoxicity CHEAL: B2.1.6
Method: as §1, §2, §3, §4, §5

[9] = system: Abutilon threophrasti (ABUTH); details: for ABUTH percentage phytotoxicity: B1; for Observed phytotoxicity ABUTH: B2.1.7
Method: as §1, §2, §3, §4, §5

[10] = system: Alopecurus myosuroides (ALOMY); details: for ALOMY percentage phytotoxicity: B1
Method: as §1, §2, §3, §4, §5

CN1C[C@H](c2cccc(C(F)(F)F)c2)[C@@H](C(=O)Nc2ccccc2F)C1=O [B-III]
SETFA percentage phytotoxicity ([1]; 3.125 g/ha post-emergence): 66% | SETFA percentage phytotoxicity ([1]; 6.25 g/ha post-emergence): 68% | SETFA percentage phytotoxicity ([1]; 12.5 g/ha post-emergence): 70% | SETFA percentage phytotoxicity ([1]; 25 g/ha post-emergence): 74% | SETFA percentage phytotoxicity ([1]; 50 g/ha post-emergence): 73% | Observed phytotoxicity SETFA ([1]; B2.1.3, 25 g/ha post-emergence): 74% | STEME percentage phytotoxicity ([2]; 3.125 g/ha post-emergence): 13% | STEME percentage phytotoxicity ([2]; 6.25 g/ha post-emergence): 21% | STEME percentage phytotoxicity ([2]; 12.5 g/ha post-emergence): 14% | STEME percentage phytotoxicity ([2]; 25 g/ha post-emergence): 46% | STEME percentage phytotoxicity ([2]; 50 g/ha post-emergence): 71% | Observed phytotoxicity STEME ([2]; B2.1.4, 6.25 g/ha post-emergence): 21% | Observed phytotoxicity STEME ([2]; B2.1.4, 12.5 g/ha post-emergence): 14% | IPOHE percentage phytotoxicity ([3]; 3.125 g/ha post-emergence): 9% | IPOHE percentage phytotoxicity ([3]; 6.25 g/ha post-emergence): 11% | IPOHE percentage phytotoxicity ([3]; 12.5 g/ha post-emergence): 15% | IPOHE percentage phytotoxicity ([3]; 25 g/ha post-emergence): 24% | IPOHE percentage phytotoxicity ([3]; 50 g/ha post-emergence): 28% | LOLPE percentage phytotoxicity ([4]; 3.125 g/ha post-emergence): 30% | LOLPE percentage phytotoxicity ([4]; 6.25 g/ha post-emergence): 43% | LOLPE percentage phytotoxicity ([4]; 12.5 g/ha post-emergence): 55% | LOLPE percentage phytotoxicity ([4]; 25 g/ha post-emergence): 70% | LOLPE percentage phytotoxicity ([4]; 50 g/ha post-emergence): 75% | Observed phytotoxicity LOLPE ([4]; B2.1.1, 6.25 g/ha post-emergence): 43% | Observed phytotoxicity LOLPE ([4]; B2.1.1, 12.5 g/ha post-emergence): 55% | AMARE percentage phytotoxicity ([5]; 3.125 g/ha post-emergence): 4% | AMARE percentage phytotoxicity ([5]; 6.25 g/ha post-emergence): 6% | AMARE percentage phytotoxicity ([5]; 12.5 g/ha post-emergence): 10% | AMARE percentage phytotoxicity ([5]; 25 g/ha post-emergence): 21% | AMARE percentage phytotoxicity ([5]; 50 g/ha post-emergence): 31% | Observed phytotoxicity AMARE ([5]; B2.1.5, 6.25 g/ha post-emergence): 6% | DIGSA percentage phytotoxicity ([6]; 3.125 g/ha post-emergence): 72% | DIGSA percentage phytotoxicity ([6]; 6.25 g/ha post-emergence): 74% | DIGSA percentage phytotoxicity ([6]; 12.5 g/ha post-emergence): 78% | DIGSA percentage phytotoxicity ([6]; 25 g/ha post-emergence): 79% | DIGSA percentage phytotoxicity ([6]; 50 g/ha post-emergence): 80% | ECHCG percentage phytotoxicity ([7]; 3.125 g/ha post-emergence): 70% | ECHCG percentage phytotoxicity ([7]; 6.25 g/ha post-emergence): 70% | ECHCG percentage phytotoxicity ([7]; 12.5 g/ha post-emergence): 73% | ECHCG percentage phytotoxicity ([7]; 25 g/ha post-emergence): 73% | ECHCG percentage phytotoxicity ([7]; 50 g/ha post-emergence): 75% | Observed phytotoxicity ECHCG ([7]; B2.1.2, 12.5 g/ha post-emergence): 73% | Observed phytotoxicity ECHCG ([7]; B2.1.2, 50 g/ha post-emergence): 75% | CHEAL percentage phytotoxicity ([8]; 3.125 g/ha post-emergence): 6% | CHEAL percentage phytotoxicity ([8]; 6.25 g/ha post-emergence): 10% | CHEAL percentage phytotoxicity ([8]; 12.5 g/ha post-emergence): 14% | CHEAL percentage phytotoxicity ([8]; 25 g/ha post-emergence): 44% | CHEAL percentage phytotoxicity ([8]; 50 g/ha post-emergence): 56% | Observed phytotoxicity CHEAL ([8]; 6.25 g/ha post-emergence): 10% | Observed phytotoxicity CHEAL ([8]; 12.5 g/ha post-emergence): 14% | ABUTH percentage phytotoxicity ([9]; 3.125 g/ha post-emergence): 10% | ABUTH percentage phytotoxicity ([9]; 6.25 g/ha post-emergence): 4% | ABUTH percentage phytotoxicity ([9]; 12.5 g/ha post-emergence): 3% | ABUTH percentage phytotoxicity ([9]; 25 g/ha post-emergence): 19% | ABUTH percentage phytotoxicity ([9]; 50 g/ha post-emergence): 18% | Observed phytotoxicity ABUTH ([9]; 6.25 g/ha post-emergence): 4% | Observed phytotoxicity ABUTH ([9]; 12.5 g/ha post-emergence): 3% | Observed phytotoxicity ABUTH ([9]; 25 g/ha post-emergence): 19% | Observed phytotoxicity ABUTH ([9]; 50 g/ha post-emergence): 18%

CCOC(=O)COc1ncccc1Oc1cc(-n2c(=O)cc(C(F)(F)F)n(C)c2=O)c(F)cc1Cl [B-V]
SETFA percentage phytotoxicity ([1]; 0.31 g/ha post-emergence): 30% | SETFA percentage phytotoxicity ([1]; 0.625 g/ha post-emergence): 38% | SETFA percentage phytotoxicity ([1]; 1.25 g/ha post-emergence): 85% | SETFA percentage phytotoxicity ([1]; 2.5 g/ha post-emergence): 99% | SETFA percentage phytotoxicity ([1]; 5 g/ha post-emergence): 100% | Observed phytotoxicity SETFA ([1]; B2.3.1, 0.625 g/ha post-emergence): 38% | Observed phytotoxicity SETFA ([1]; B2.3.1, 1.25 g/ha post-emergence): 85% | STEME percentage phytotoxicity ([2]; 0.31 g/ha post-emergence): 25% | STEME percentage phytotoxicity ([2]; 0.625 g/ha post-emergence): 83% | STEME percentage phytotoxicity ([2]; 1.25 g/ha post-emergence): 83% | STEME percentage phytotoxicity ([2]; 2.5 g/ha post-emergence): 100% | STEME percentage phytotoxicity ([2]; 5 g/ha post-emergence): 100% | Observed phytotoxicity STEME ([2]; B2.3.7, 0.3125 g/ha post-emergence): 25% | ALOMY percentage phytotoxicity ([10]; 0.31 g/ha post-emergence): 2% | ALOMY percentage phytotoxicity ([10]; 0.625 g/ha post-emergence): 2% | ALOMY percentage phytotoxicity ([10]; 1.25 g/ha post-emergence): 10% | ALOMY percentage phytotoxicity ([10]; 2.5 g/ha post-emergence): 20% | ALOMY percentage phytotoxicity ([10]; 5 g/ha post-emergence): 28% | Observed phytotoxicity ALOMY ([10]; B2.3.5, 1.25 g/ha post-emergence): 10% | IPOHE percentage phytotoxicity ([3]; 0.31 g/ha post-emergence): 58% | IPOHE percentage phytotoxicity ([3]; 0.625 g/ha post-emergence): 70% | IPOHE percentage phytotoxicity ([3]; 1.25 g/ha post-emergence): 100% | IPOHE percentage phytotoxicity ([3]; 2.5 g/ha post-emergence): 100% | IPOHE percentage phytotoxicity ([3]; 5 g/ha post-emergence): 100% | Observed phytotoxicity IPOHE ([3]; B2.3.6, 0.3125 g/ha post-emergence): 58% | LOLPE percentage phytotoxicity ([4]; 0.31 g/ha post-emergence): 2% | LOLPE percentage phytotoxicity ([4]; 0.625 g/ha post-emergence): 0% | LOLPE percentage phytotoxicity ([4]; 1.25 g/ha post-emergence): 8% | LOLPE percentage phytotoxicity ([4]; 2.5 g/ha post-emergence): 15% | LOLPE percentage phytotoxicity ([4]; 5 g/ha post-emergence): 25% | Observed phytotoxicity LOLPE ([4]; B2.3.4, 1.25 g/ha post-emergence): 8% | Observed phytotoxicity LOLPE ([4]; B2.3.4, 2.5 g/ha post-emergence): 15% | AMARE percentage phytotoxicity ([5]; 0.31 g/ha post-emergence): 98% | AMARE percentage phytotoxicity ([5]; 0.625 g/ha post-emergence): 98% | AMARE percentage phytotoxicity ([5]; 1.25 g/ha post-emergence): 100% | AMARE percentage phytotoxicity ([5]; 2.5 g/ha post-emergence): 100% | AMARE percentage phytotoxicity ([5]; 5 g/ha post-emergence): 100% | DIGSA percentage phytotoxicity ([6]; 0.31 g/ha post-emergence): 13% | DIGSA percentage phytotoxicity ([6]; 0.625 g/ha post-emergence): 43% | DIGSA percentage phytotoxicity ([6]; 1.25 g/ha post-emergence): 88% | DIGSA percentage phytotoxicity ([6]; 2.5 g/ha post-emergence): 99% | DIGSA percentage phytotoxicity ([6]; 5 g/ha post-emergence): 100% | Observed phytotoxicity DIGSA ([6]; B2.3.3, 0.625 g/ha post-emergence): 43% | ECHCG percentage phytotoxicity ([7]; 0.31 g/ha post-emergence): 5% | ECHCG percentage phytotoxicity ([7]; 0.625 g/ha post-emergence): 3% | ECHCG percentage phytotoxicity ([7]; 1.25 g/ha post-emergence): 9% | ECHCG percentage phytotoxicity ([7]; 2.5 g/ha post-emergence): 23% | ECHCG percentage phytotoxicity ([7]; 5 g/ha post-emergence): 65% | Observed phytotoxicity ECHCG ([7]; B2.3.2, 0.625 g/ha post-emergence): 3% | Observed phytotoxicity ECHCG ([7]; B2.3.2, 1.25 g/ha post-emergence): 9% | Observed phytotoxicity ECHCG ([7]; B2.3.2, 2.5 g/ha post-emergence): 23% | CHEAL percentage phytotoxicity ([8]; 0.31 g/ha post-emergence): 85% | CHEAL percentage phytotoxicity ([8]; 0.625 g/ha post-emergence): 96% | CHEAL percentage phytotoxicity ([8]; 1.25 g/ha post-emergence): 93% | CHEAL percentage phytotoxicity ([8]; 2.5 g/ha post-emergence): 100% | CHEAL percentage phytotoxicity ([8]; 5 g/ha post-emergence): 100% | ABUTH percentage phytotoxicity ([9]; 0.31 g/ha post-emergence): 97% | ABUTH percentage phytotoxicity ([9]; 0.625 g/ha post-emergence): 98% | ABUTH percentage phytotoxicity ([9]; 1.25 g/ha post-emergence): 100% | ABUTH percentage phytotoxicity ([9]; 2.5 g/ha post-emergence): 100% | ABUTH percentage phytotoxicity ([9]; 5 g/ha post-emergence): 100%
